Source: PMC12275099, “VX-445 (elexacaftor) inhibits chloride secretion across human bronchial epithelial cells by directly blocking KCa3.1 channels” (PNAS Nexus, 2025)
“And” between values parts separate entries of the source, which are not always exact repeats. Equal values may be shown once.

Assays:
[1] = test system: BKCa (KCa1.1, KCNMA1) channels; parameters: method as in PMID 38954478; settings: primary HBEs and HEK cells heterologously expressing the channel; cited from earlier work
[2] = molecular target: T1, KCa3.1 (Homo sapiens, UniProt O15554); experiment: Excised inside-out patch-clamp on HEK-KCa3.1; format: biochemical
T1 construct: expressed in transfected cells
Method: Our Isc results are consistent with VX-445 inhibiting KCa3.1 in HBEs. To directly assess this possibility, we initially carried out whole-cell patch-clamp studies on undifferentiated HBEs. […] Upon application of 10 µM VX-445, a majority of this current was inhibited, averaging 87 ± 4% (n = 3, P < 0.005; Fig. 3B). A summary of the current–voltage (I–V) relationship—normalized to cell capacitance—is shown in Fig. 3C, which also includes the whole-cell I–V in the presence of Tram-34. […] To ensure isolation of KCa3.1 currents and to more fully characterize this VX-445-dependent inhibition of KCa3.1, we utilized HEK cells heterologously expressing KCa3.1 (HEK-KCa3.1). Initially, we confirmed our results from HBEs, using whole-cell recordings, as above. […] In seven experiments, this inhibition averaged 58 ± 7% (P < 0.005). […] It is well recognized that drugs are carried to their targets in the blood bound to albumin, which ranges from 3.4 to 5.4%. Thus, we determined whether VX-445 (10 µM) would inhibit KCa3.1 expressed in HEK cells in the presence of 3.4% albumin. In four experiments, VX-445 inhibited an average of 51 ± 17% of the whole-cell KCa3.1 current, which is not different from that observed in the absence of albumin. To confirm the direct effect of VX-445 on KCa3.1, we utilized the excised, inside-out patch-clamp technique. The patch was then exposed to DCEBIO (100 µM) to further activate the channels ([34–37])—analogous to our Isc studies in HBEs. […] In three experiments, VX-445 inhibited an average of 63 ± 6% of the KCa3.1 current. Based on these experiments, we determined the apparent inhibitory constant, Ki for VX-445. For these experiments, patches were excised into saturating Ca^2+ (3 µM) to ensure maximal KCa3.1 activation. These studies were carried out in the absence of DCEBIO to eliminate the possibility that the inhibition observed was due to competition for the DCEBIO-binding site.
(§1) HEK cells stably expressing KCa3.1 (IK1, SK4), KCa2.3 (SK3), and KCa2.2 (SK2) were generated and cultured as previously described by us ([37], [66–71]).
(§2) HEK cells expressing the channel of interest were plated onto poly-L-lysine-coated glass coverslips 1–2 days prior to patch-clamp analysis. Electrophysiological recordings in the excised, inside-out, and whole-cell patch-clamp configurations were performed as recently described ([14]). For excised patch-clamp recordings, the pipette solution contained (in mM): 140 K-gluconate, 5 KCl, 1 CaCl2, 1 MgCl2, and 10 HEPES. The pH was adjusted to 7.2 with KOH. The bath solution contained (in mM): 145 K-gluconate, 5 KCl, 1.3 MgCl2, 10 HEPES, and 1 EGTA. Sufficient CaCl2 was added to obtain the desired free Ca^2+ concentration at a pH of 7.2 (adjusted with KOH). When recording KCa3.1 channels, ATP (300 µM) was added to the bath to diminish channel rundown ([73]). All recordings were carried out at a voltage of −100 mV, referenced to the extracellular compartment, as is standard. The apparent Ki and Hill coefficient for each CFTR corrector on KCa3.1, KCa2.3, and KCa2.2 were determined during a continuous recording by step-wise addition of increasing concentrations of compound and fitting the resultant relative remaining current to a Hill equation (Prism v. 10.1.0). The zero current level was determined by the addition of a 0 Ca^2+ solution (zero-added Ca^2+ plus 1 mM EGTA) at the end of the experiment. In the case of KCa3.1, TRAM-34, a known inhibitor of KCa3.1 ([45]), was used to confirm expression of the channel. For whole-cell experiments, pipettes contained (in mM): 145 K-gluconate, 10 EGTA, 7.5 CaCl2, 2 MgCl2, 3 mM NaATP, and 10 HEPES. The bath solution contained (in mM): 140 K-gluconate, 5 KCl, 1.0 MgCl2, 10 HEPES, and 2 CaCl2. Current–voltage relationships were determined by stepping from a holding potential of −80 mV to +80 mV in 20 mV increments for 400 ms. […]

[3] = molecular target: KCa2.2 (Rattus norvegicus, UniProt P70604); experiment: Excised inside-out patch-clamp on HEK cells expressing KCa2.2; format: biochemical; settings: 1 µM free Ca2+
Chain of KCa2.2 (P70604 whole entry): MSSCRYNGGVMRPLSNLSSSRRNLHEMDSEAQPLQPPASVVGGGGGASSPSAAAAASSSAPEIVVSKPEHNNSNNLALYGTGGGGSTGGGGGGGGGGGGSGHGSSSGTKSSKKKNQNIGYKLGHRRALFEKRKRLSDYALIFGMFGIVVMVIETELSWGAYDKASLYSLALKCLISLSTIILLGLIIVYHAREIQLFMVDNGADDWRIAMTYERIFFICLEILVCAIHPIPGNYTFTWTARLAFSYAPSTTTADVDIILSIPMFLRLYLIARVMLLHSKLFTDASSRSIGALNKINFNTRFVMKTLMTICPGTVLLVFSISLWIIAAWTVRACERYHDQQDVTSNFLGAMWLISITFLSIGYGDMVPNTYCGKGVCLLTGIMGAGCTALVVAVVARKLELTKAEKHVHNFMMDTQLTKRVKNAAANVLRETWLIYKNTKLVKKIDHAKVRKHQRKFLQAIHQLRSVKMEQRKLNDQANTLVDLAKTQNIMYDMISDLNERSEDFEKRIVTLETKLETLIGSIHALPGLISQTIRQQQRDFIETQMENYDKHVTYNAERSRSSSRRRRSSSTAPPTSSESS
Method: (§3) As above, we performed excised patch-clamp recordings on HEK cells heterologously expressing KCa2.3 or KCa2.2, in order to assess the activity of C2 CFTR corrector compounds. […] In contrast, the subsequent addition of 10 µM VX-659 yielded an almost complete inhibition of KCa2.3 currents, averaging 91 ± 3% (n = 4).
as §1
HEK cells expressing the channel of interest were plated onto poly-L-lysine-coated glass coverslips 1–2 days prior to patch-clamp analysis. […] The apparent Ki and Hill coefficient for each CFTR corrector on KCa3.1, KCa2.3, and KCa2.2 were determined during a continuous recording by step-wise addition of increasing concentrations of compound and fitting the resultant relative remaining current to a Hill equation (Prism v. 10.1.0). The zero current level was determined by the addition of a 0 Ca^2+ solution (zero-added Ca^2+ plus 1 mM EGTA) at the end of the experiment. […] Current–voltage relationships were determined by stepping from a holding potential of −80 mV to +80 mV in 20 mV increments for 400 ms. The middle 300 ms of each trace was selected to avoid any influence of capacitive transients, and average currents were calculated for each voltage via the I–V tool in Clampfit. […]

[4] = molecular target: KCa2.3 (Homo sapiens, UniProt Q9UGI6); experiment: Excised inside-out patch-clamp on HEK cells expressing KCa2.3; format: biochemical
Chain of KCa2.3 (Q9UGI6 whole entry): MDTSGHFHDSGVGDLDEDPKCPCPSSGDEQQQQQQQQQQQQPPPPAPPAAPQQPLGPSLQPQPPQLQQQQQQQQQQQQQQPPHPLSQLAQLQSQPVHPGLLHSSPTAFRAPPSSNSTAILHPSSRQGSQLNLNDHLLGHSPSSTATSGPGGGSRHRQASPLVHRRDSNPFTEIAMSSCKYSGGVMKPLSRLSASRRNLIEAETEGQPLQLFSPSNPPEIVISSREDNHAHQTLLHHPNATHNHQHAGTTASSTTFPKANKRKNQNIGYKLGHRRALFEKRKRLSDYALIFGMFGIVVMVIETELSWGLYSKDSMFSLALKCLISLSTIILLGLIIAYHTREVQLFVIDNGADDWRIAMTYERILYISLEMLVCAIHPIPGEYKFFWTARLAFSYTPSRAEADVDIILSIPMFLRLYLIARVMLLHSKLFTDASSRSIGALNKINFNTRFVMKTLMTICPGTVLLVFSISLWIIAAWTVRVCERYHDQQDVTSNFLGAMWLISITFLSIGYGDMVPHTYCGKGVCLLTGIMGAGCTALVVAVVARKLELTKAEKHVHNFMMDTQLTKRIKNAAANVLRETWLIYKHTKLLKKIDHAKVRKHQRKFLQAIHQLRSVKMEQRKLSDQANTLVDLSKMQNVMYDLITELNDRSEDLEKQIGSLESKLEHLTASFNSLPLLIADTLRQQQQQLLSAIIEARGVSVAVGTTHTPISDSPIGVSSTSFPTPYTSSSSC
Method: as §3, §1
as §2, with “In the case of KCa3.1, TRAM-34, a known inhibitor of KCa3.1 ([45]), was used to confirm expression of the channel. For whole-cell experiments, pipettes contained (in mM): 145 K-gluconate, 10 EGTA, 7.5 CaCl2, 2 MgCl2, 3 mM NaATP, and 10 HEPES. The bath solution contained (in mM): 140 K-gluconate, 5 KCl, 1.0 MgCl2, 10 HEPES, and 2 CaCl2.” left out, “ms. The middle 300 ms of each trace was selected to avoid any influence of capacitive transients, and average currents were calculated for each voltage via the I–V tool in Clampfit.” for “ms.”

SMILES: C[C@@H]1CN(c2nc(-n3ccc(OCCC4(C(F)(F)F)CC4)n3)ccc2C(=O)NS(=O)(=O)c2ccccc2)C(C)(C)C1 [VX-659, bamocaftor]
- effect on BKCa [1]: weakly potentiates
- Hill coefficient ([2]; 3 µM free Ca2+, absence of DCEBIO): 1.8
- Ki ([2]; 3 µM free Ca2+, absence of DCEBIO, Hill fit, n = 4, read-out: apparent Ki): 0.89 µM and 0.9 µM
- inhibition at 10 µM ([2]; 10 µM compound after DCEBIO 100 µM, 1 µM free Ca2+, three experiments, read-out: inhibition of KCa3.1 current in excised patch): 98 ± 1%
- selectivity among KCNN gene family members ([2]; KCa3.1 versus KCa2.2 and KCa2.3): inhibits all members of the KCNN gene family with a similar affinity
- relative remaining current ([2]; [VX-659] 0.3, Fig 4G single experiments): 89 and 100 and 78 and 88
- Hill coefficient [3]: 1.6 and 2.1
- Hill coefficient ([4]; 1 µM free Ca2+): 1.9 and 1.3
- inhibition at 10 µM ([4]; read-out: inhibition of KCa2.3 currents): 91 ± 3%
